# Source: US20060009478A1, “Methods for the treatment of back pain” (priority 2003, published 2006)
# Test system: patients with moderate to severe chronic low back pain
# Assay: Pain intensity (daily diary, 11-point numerical scale), low back pain study with titration and 12-week fixed-dose period
# Assay type: in vivo, human
# Settings: LOCF, ITT
# Description: A multicenter, randomized, double-blind, active- and placebo-controlled study was designed and conducted.
# In addition, adverse events and opioid-related adverse events were to be recorded in the daily diary.
# For the pain intensity (PI) scale assessment, the patient was prompted with the question “How would you rate your overall pain intensity at this time?” and the PI score was recorded in the clinic at the Screening and Baseline Visits. Pain intensity was also assessed by prompting the patient with the questions “How would you rate your overall pain intensity during the past 24 hours?” and a daily PI diary score was recorded at bedtime. For both Pain Intensity prompts, the response was scored on an 11-point numerical scale (0=no pain and 10=severe pain).
# The baseline average daily pain intensity score for each patient was calculated as the average of the daily bedtime pain intensity scores recorded during the 3 days immediately prior to baseline/start of titration period visit. The post-baseline average daily pain intensity scores were calculated as the average of the daily bedtime pain intensity scores recorded during the last 3 days of dosing prior to each visit. Missing data was imputed using the last-observation-carried-forward (LOCF) approach for efficacy variables in the fixed-dose period. If the first visit in the fixed-dose period was missing, the last value in the titration period was imputed forward. Unless indicated, all testing of statistical significance was two-sided, and a difference resulting in a p-value of equal to or less than 0.05 was considered statistically significant.
# A primary efficacy endpoint was the percent change from baseline to the end of the fixed-dose period (Week 12) in average daily pain intensity. The percent change from baseline was calculated as [PI(baseline)−PI(fixed-dose)]/PI(baseline)*100. Data was summarized descriptively by treatment group. An analysis of covariance (ANCOVA) model including treatment and center as effects and baseline pain intensity as the covariate was used for global and pairwise inferences. Separate models were used to evaluate both the treatment by center and treatment by baseline pain intensity interaction terms.
# A primary comparison of interest was oxycodone and naltrexone (e.g., BID or QID) versus oxycodone (e.g., QID). Secondary analyses included actual and percent change from baseline values of daily pain index, SF-12, and Oswestry disability index summarized descriptively by treatment group for both the titration and fixed-dose periods. Treatments were compared globally and in pairwise fashion at each visit in the fixed-dose period using an ANCOVA model that included treatment and center as effects and baseline pain intensity as the covariate. Separate models were used to evaluate both the treatment by center and treatment by baseline pain intensity interaction terms.
structure (smiles),measurement,setting,value
"COc1ccc2c3c1O[C@H]1C(=O)CC[C@@]4(O)[C@@H](C2)N(C)CC[C@]314 [OXY QID, oxycodone]","Pain intensity actual value at fixed dose week 7, maximum",fixed dose week 7,10.0
same,"Pain intensity actual value at fixed dose week 7, mean (SD)",fixed dose week 7,4.0 (2.54)
same,"Pain intensity actual value at fixed dose week 7, median",fixed dose week 7,3.3
same,"Pain intensity actual value at fixed dose week 7, minimum",fixed dose week 7,0.0
same,"Pain intensity change from baseline to fixed dose week 7, maximum",fixed dose week 7,3.0
same,"Pain intensity change from baseline to fixed dose week 7, mean (SD)",fixed dose week 7,−3.6 (2.69)
same,"Pain intensity change from baseline to fixed dose week 7, median",fixed dose week 7,−4.0
same,"Pain intensity change from baseline to fixed dose week 7, minimum",fixed dose week 7,−9.7
same,"Pain intensity percent change from baseline to fixed dose week 7, maximum",fixed dose week 7,42.9%
same,"Pain intensity percent change from baseline to fixed dose week 7, mean (SD)",fixed dose week 7,−46.8 (34.05) %
same,"Pain intensity percent change from baseline to fixed dose week 7, median",fixed dose week 7,−52.9%
same,"Pain intensity percent change from baseline to fixed dose week 7, minimum",fixed dose week 7,−100.0%
same,"Pain intensity actual value at fixed dose week 8, maximum",fixed dose week 8,10.0
same,"Pain intensity actual value at fixed dose week 8, mean (SD)",fixed dose week 8,4.0 (2.57)
same,"Pain intensity actual value at fixed dose week 8, median",fixed dose week 8,3.3
same,"Pain intensity actual value at fixed dose week 8, minimum",fixed dose week 8,0.0
same,"Pain intensity change from baseline to fixed dose week 8, maximum",fixed dose week 8,3.0
same,"Pain intensity change from baseline to fixed dose week 8, mean (SD)",fixed dose week 8,−3.6 (2.67)
same,"Pain intensity change from baseline to fixed dose week 8, median",fixed dose week 8,−3.7
same,"Pain intensity change from baseline to fixed dose week 8, minimum",fixed dose week 8,−9.7
same,"Pain intensity percent change from baseline to fixed dose week 8, maximum",fixed dose week 8,42.9%
same,"Pain intensity percent change from baseline to fixed dose week 8, mean (SD)",fixed dose week 8,−46.5 (34.05) %
same,"Pain intensity percent change from baseline to fixed dose week 8, median",fixed dose week 8,−52.4%
same,"Pain intensity percent change from baseline to fixed dose week 8, minimum",fixed dose week 8,−100.0%
same,"Pain intensity actual value at fixed dose week 9, maximum",fixed dose week 9,10.0
same,"Pain intensity actual value at fixed dose week 9, mean (SD)",fixed dose week 9,3.9 (2.57)
same,"Pain intensity actual value at fixed dose week 9, median",fixed dose week 9,3.3
same,"Pain intensity actual value at fixed dose week 9, minimum",fixed dose week 9,0.0
same,"Pain intensity change from baseline to fixed dose week 9, maximum",fixed dose week 9,3.0
same,"Pain intensity change from baseline to fixed dose week 9, mean (SD)",fixed dose week 9,−3.6 (2.70)
same,"Pain intensity change from baseline to fixed dose week 9, median",fixed dose week 9,−4.0
same,"Pain intensity change from baseline to fixed dose week 9, minimum",fixed dose week 9,−9.7
same,"Pain intensity percent change from baseline to fixed dose week 9, maximum",fixed dose week 9,42.9%
same,"Pain intensity percent change from baseline to fixed dose week 9, mean (SD)",fixed dose week 9,−47.4 (34.17) %
same,"Pain intensity percent change from baseline to fixed dose week 9, median",fixed dose week 9,−53.3%
same,"Pain intensity percent change from baseline to fixed dose week 9, minimum",fixed dose week 9,−100.0%
same,"Pain intensity actual value at fixed dose week 10, maximum",fixed dose week 10,10.0
same,"Pain intensity actual value at fixed dose week 10, mean (SD)",fixed dose week 10,4.0 (2.54)
same,"Pain intensity actual value at fixed dose week 10, median",fixed dose week 10,3.7
same,"Pain intensity actual value at fixed dose week 10, minimum",fixed dose week 10,0.0
same,"Pain intensity change from baseline to fixed dose week 10, maximum",fixed dose week 10,3.0
same,"Pain intensity change from baseline to fixed dose week 10, mean (SD)",fixed dose week 10,−3.6 (2.66)
same,"Pain intensity change from baseline to fixed dose week 10, median",fixed dose week 10,−3.7
same,"Pain intensity change from baseline to fixed dose week 10, minimum",fixed dose week 10,−9.7
same,"Pain intensity percent change from baseline to fixed dose week 10, maximum",fixed dose week 10,42.9%
same,"Pain intensity percent change from baseline to fixed dose week 10, mean (SD)",fixed dose week 10,−46.8 (33.72) %
same,"Pain intensity percent change from baseline to fixed dose week 10, median",fixed dose week 10,−52.0%
same,"Pain intensity percent change from baseline to fixed dose week 10, minimum",fixed dose week 10,−100.0%
same,"Pain intensity actual value at fixed dose week 11, maximum",fixed dose week 11,10.0
same,"Pain intensity actual value at fixed dose week 11, mean (SD)",fixed dose week 11,3.9 (2.57)
same,"Pain intensity actual value at fixed dose week 11, median",fixed dose week 11,3.3
same,"Pain intensity actual value at fixed dose week 11, minimum",fixed dose week 11,0.0
same,"Pain intensity change from baseline to fixed dose week 11, maximum",fixed dose week 11,3.0
same,"Pain intensity change from baseline to fixed dose week 11, mean (SD)",fixed dose week 11,−3.7 (2.70)
same,"Pain intensity change from baseline to fixed dose week 11, median",fixed dose week 11,−4.0
same,"Pain intensity change from baseline to fixed dose week 11, minimum",fixed dose week 11,−9.7
same,"Pain intensity percent change from baseline to fixed dose week 11, maximum",fixed dose week 11,42.9%
same,"Pain intensity percent change from baseline to fixed dose week 11, mean (SD)",fixed dose week 11,−48.2 (34.19) %
same,"Pain intensity percent change from baseline to fixed dose week 11, median",fixed dose week 11,−55.6%
same,"Pain intensity percent change from baseline to fixed dose week 11, minimum",fixed dose week 11,−100.0%
same,"Pain intensity actual value at fixed dose week 12, maximum",fixed dose week 12,10.0
same,"Pain intensity actual value at fixed dose week 12, mean (SD)",fixed dose week 12,4.0 (2.53)
same,"Pain intensity actual value at fixed dose week 12, median",fixed dose week 12,3.7
same,"Pain intensity actual value at fixed dose week 12, minimum",fixed dose week 12,0.0
same,"Pain intensity change from baseline to fixed dose week 12, maximum",fixed dose week 12,3.0
same,"Pain intensity change from baseline to fixed dose week 12, mean (SD)",fixed dose week 12,−3.5 (2.65)
same,"Pain intensity change from baseline to fixed dose week 12, median",fixed dose week 12,−3.7
same,"Pain intensity change from baseline to fixed dose week 12, minimum",fixed dose week 12,−9.7
same,"Pain intensity percent change from baseline to fixed dose week 12, maximum",fixed dose week 12,42.9%
same,"Pain intensity percent change from baseline to fixed dose week 12, mean (SD)",fixed dose week 12,−46.2 (33.60) %
same,"Pain intensity percent change from baseline to fixed dose week 12, median",fixed dose week 12,−52.0%
same,"Pain intensity percent change from baseline to fixed dose week 12, minimum",fixed dose week 12,−100.0%
